# Values of other authors in patent publication US5595896A, “Expression of heterologous genes in transgenic plants and plant cells using plant asparagine synthetase promoters” (New York University, priority 1993, dated 1997).
# Numbered stars: 1 amine (or outer) side, 2 acyl side, 3 side chain; on linkers, the order of the positions; unused ones are H or OH. Bridge positions count the residues as written; N and C are the ends. Square brackets hold non-standard residues; d marks the D form. Peptide text beside a SMILES is read from it. I, II: the chains in the order shown. Actinocin(9to1) = Cc1c2oc3c(C)ccc(C(=O)[*:1])c3nc-2c(C(=O)[*:2])c(N)c1=O; NMeV = CN[CH](C(=O)O)C(C)C; Sar = CNCC(=O)O
# Tested on: PLANT AS
# Conditions: not given
row,Compound,Inhibition (%)
1,CS(=N)(=O)CC[C@H](N)C(=O)O (stereo partly drawn) [L-methionine-S-sulphoximine],8.6

# Same assay, conditions: Asparagine analogues, 2 mM
row,Compound,Inhibition (%)
1,CC(C(N)=O)C(N)C(=O)O (racemic) [β-methyl-DL-asparagine],55.1
2,N[C@@H](CS(N)(=O)=O)C(=O)O [2-amino-2-carboxy-L-ethanesulphonamide],42.5
3,[N-]=[N+]=CC(=O)C[C@H](N)C(=O)O [5-diazo-4-oxo-L-norvaline],40.3
4,CN[C@@H](CC(N)=O)C(=O)O [N-α-methyl-L-asparagine],38.8
5,NC(=O)[C@H](O)[C@H](N)C(=O)O [erythro-β-hydroxy-L-asparagine],59.5
6,NC(=O)[C@@H](O)[C@H](N)C(=O)O [threo β-hydroxy-L-asparagine],45.2
7,N-ethyl-L-asparagine,47.2
8,N-methyl-L-asparagine,57.6

# Same assay, conditions: Aspartate analogues, 2 mM
row,Compound,Inhibition (%)
1,NC(=O)[C@H](N)[C@H](N)C(=O)O (relative stereo) [meso-diaminosuccinamate],50.6
2,N[C@@H](CC(=O)CBr)C(=O)O [5-bromo-4-oxo-L-norvaline],49.5
3,N[C@@H](CC(=O)CCl)C(=O)O [5-chloro-4-oxo-L-norvaline],42.1
4,N[C@H](C(=O)O)[C@@H](O)C(=O)O [erythro β-hydroxy-L-aspartate],65.4
5,C[C@@H](C(=O)O)[C@H](N)C(=O)O [erythro β-methyl-L-aspartate],51.4
6,C[C@H](C(=O)O)[C@H](N)C(=O)O [threo β-methyl-L-aspartate],58.4

# Same assay, conditions: Glutamine analogues, 5 mM
row,Compound,Inhibition (%)
1,2-hydroxyethyl-L-glutamine,31.1
2,NC(=O)CCCC(N)C(=O)O (racemic) [DL-homoglutamine],42.4
3,NC(=O)CCC(NC(=O)OCc1ccccc1)C(=O)O (racemic) [N-CBZ-DL-glutamine],30.5
4,NC(=O)CC[C@@H](N)C(=O)O [D-glutamine],14.8
5,NC(=O)NC[C@H](N)C(=O)O [L-albizziine],85.2
6,[N-]=[N+]=CC(=O)OC[C@H](N)C(=O)O [L-azaserine],97.5
7,NC(=O)CC[C@H](N)C(N)=O [L-glutamate diamide],9.1
8,CCOC(=O)CC[C@H](N)C(=O)O [L-glutamate-γ-ethyl ester],23.6
9,COC(=O)CC[C@H](N)C(=O)O [L-glutamate-γ-methyl ester],27.2
10,CC(=O)N[C@@H](CCC(N)=O)C(=O)O [N-acetyl-L-glutamine],10.2
11,NC(=O)SC[C@H](N)C(=O)O [S-carbamoyl-L-cysteine],35.6
12,C=C(C[C@H](N)C(=O)O)C(N)=O [γ-methylene-L-glutamine],20.4

# Tested on: GS
# Conditions: toxin produced by P. syringae, coinfected alfalfa plants
row,Compound,GS activity inhibited by toxin
1,N[C@@H](CCC1(O)CNC1=O)C(=O)O (stereo partly drawn) [Tabtoxinine β-lactam],severely inhibited

# Tested on: AS
# Conditions: actinomycin D treatment, cotyledons of germinating cotton seedlings
row,Compound,induction of AS activity
1,"Cc1c2oc3c(C)ccc(C(=O)NC4C(=O)NC(C(C)C)C(=O)N5CCCC5C(=O)N(C)CC(=O)N(C)C(C(C)C)C(=O)OC4C)c3nc-2c(C(=O)NC2C(=O)NC(C(C)C)C(=O)N3CCCC3C(=O)N(C)CC(=O)N(C)C(C(C)C)C(=O)OC2C)c(N)c1=O (centres unmarked) [actinomycin D] (I: TVP[Sar][NMeV] / II: TVP[Sar][NMeV]; ester I:1-I:C, II:1-II:C; linker I:N-II:N via Actinocin(9to1); configuration not given here)",abolished
